How the values were obtained:
[1] = biological target: T1, EED protein (His6-tagged full-length) binding to H3K27me3 polypeptide (Homo sapiens, UniProt O75530); test: AlphaScreen evaluation of blocking the binding of EED to H3K27Me3; details: EED 60 nM, biotinylated H3K27me3 75 nM, 30 minutes incubation
T1 construct: His6-tagged full-length EED protein (441 amino acids)
Method in brief: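 His6-tagged full-length EED (60 nM working stock) and biotin-H3K27me3 peptide aa 19–33 (75 nM working stock) incubated 30 min RT with 9-point 3-fold compound series in 25 mM HEPES pH 8.0, 50 mM NaCl, 0.015% Tween 20, 0.5% BSA. Ni-chelate acceptor and streptavidin donor beads (5 μg/mL each), 1 h dark; IC50 from dose-response fit. Biotin-(His)6 counterscreen checked signal interference.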

KARPAS-422 cells = test: Cell proliferation analysis, KARPAS-422, 13 days, CellTiter-Glo; format: cell-based; details: Homo sapiens, 312 h
Method in brief: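 KARPAS-422 cells were treated with PRC2 inhibitors over 9 three-fold dilutions from 10 μM top (0.5% DMSO, duplicates) in RPMI-1640 with 15% FBS at 37 °C. Every 3–4 days cells were counted and reseeded at 1×10^4/well with fresh compound. Viability was read by CellTiter-Glo luminescence on day 13.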

[2] = system: trimethylation level of histone H3K27 in G401 cells; test: ELISA (H3K27 trimethylation) analysis in G401 cells; format: cell-based; details: Homo sapiens, G-401, 72 hours, H3K27me3 standardized to H3
Method in brief: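 Cells exposed 72 h to 10-point 3-fold dilutions, top 10 μM, 0.5% final DMSO. Acid-extracted histones assayed by ELISA (ECL) for H3K27me3, normalized to total H3 and to DMSO control; IC50 from dose-response fit.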

T1 sequence (O75530 whole entry): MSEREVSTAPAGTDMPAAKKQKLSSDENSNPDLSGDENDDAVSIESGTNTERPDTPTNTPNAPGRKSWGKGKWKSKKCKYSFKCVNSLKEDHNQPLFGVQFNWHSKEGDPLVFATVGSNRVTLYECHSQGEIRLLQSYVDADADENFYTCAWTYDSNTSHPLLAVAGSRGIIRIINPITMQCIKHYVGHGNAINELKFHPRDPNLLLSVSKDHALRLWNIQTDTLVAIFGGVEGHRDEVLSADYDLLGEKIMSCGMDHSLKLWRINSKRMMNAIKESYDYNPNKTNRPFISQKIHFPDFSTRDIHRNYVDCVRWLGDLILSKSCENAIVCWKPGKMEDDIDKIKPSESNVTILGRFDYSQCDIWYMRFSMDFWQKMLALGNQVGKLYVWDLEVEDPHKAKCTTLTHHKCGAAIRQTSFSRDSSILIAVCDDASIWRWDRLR

Question: Which IC50 [1] does the source give for `O=S1(=O)C=Cc2cc(-c3cnc(NCc4c(F)ccc5c4CCO5)n4cnnc34)ccc21` [5-(5-(((5-fluoro-2,3-dihydrobenzofuran-4-yl)methyl)amino)-[1,2,4]triazolo[4,3-c]pyrimidin-8-yl)benzo[b]thiophene 1,1-dioxide] here?
Answer: 0.0049 µM

Question: What about the IC50 (KARPAS-422 cells) of the same compound?
Answer: 0.0007 µM

Question: And the IC50 [2]?
Answer: 0.0021 µM

Question: `O=S1(=O)C=c2ccc(-c3cnc(NCc4c(F)ccc5c4CCCO5)n4cnnc34)cc2=C1` [5-(5-(((6-fluorochroman-5-yl)methyl)amino)-[1,2,4]triazolo[4,3-c]pyrimidin-8-yl)benzo[c]thiophene 2,2-dioxide] was tested. Which IC50 [1] did it give?
Answer: 0.0064 µM

Question: What about the IC50 (KARPAS-422 cells) of the same compound?
Answer: 0.0016 µM

Question: And the IC50 [2]?
Answer: 0.002 µM

Question: With `Cc1ccc(-c2cnc(NCc3c(F)ccc4c3CCO4)n3cnnc23)c2ncc(C(C)C)n12` [N-((5-fluoro-2,3-dihydrobenzofuran-4-yl)methyl)-8-(3-isopropyl-5-methylimidazo[1,2-a]pyridin-8-yl)-[1,2,4]triazolo[4,3-c]pyrimidin-5-amine] as the compound, how does the IC50 [1] read?
Answer: 0.0028 µM

Question: What about the IC50 (KARPAS-422 cells) of the same compound?
Answer: 0.001 µM

Question: What about the IC50 [2] of the same compound?
Answer: 0.0007 µM

Question: With `O=S1(=O)C=c2ccc(-c3cnc(NCc4c(F)ccc5c4[C@H]4C[C@H]4O5)n4cnnc34)cc2=C1` [5-(5-((((1aR,6bR)-5-fluoro-1a,6b-dihydro-1H-cyclopropa[b]benzofuran-6-yl)methyl)amino)-[1,2,4]triazolo[4,3-c]pyrimidin-8-yl)benzo[c]thiophene 2,2-dioxide] as the compound, how does the IC50 [1] read?
Answer: 0.0063 µM

Question: And the IC50 (KARPAS-422 cells)?
Answer: 0.0008 µM

Question: What about the IC50 [2] of the same compound?
Answer: 0.0006 µM

Question: What does the source list for `NCCC1=CS(=O)(=O)c2ccc(-c3cnc(NCc4c(F)ccc5c4[C@@H]4C[C@@H]4O5)n4cnnc34)cc21` [3-(2-aminoethyl)-5-(5-((((1aS,6bS)-5-fluoro-1a,6b-dihydro-1H-cyclopropa[b]benzofuran-6-yl)methyl)amino)-[1,2,4]triazolo[4,3-c]pyrimidin-8-yl)benzo[b]thiophene 1,1-dioxide]?
Answer: IC50 [1]: 0.0054 µM; IC50 (KARPAS-422 cells): 0.033 µM; IC50 [2]: 0.075 µM

Question: Which IC50 [1] does the source give for `Cc1nc2c(-c3cnc(NCc4c(F)ccc5c4CCO5)n4cnnc34)cccc2o1` [N-((5-fluoro-2,3-dihydrobenzofuran-4-yl)methyl)-8-(2-methylbenzo[d]oxazol-4-yl)-[1,2,4]triazolo[4,3-c]pyrimidin-5-amine] here?
Answer: 0.0092 µM

Question: What about the IC50 (KARPAS-422 cells) of the same compound?
Answer: 0.0042 µM

Question: What about the IC50 [2] of the same compound?
Answer: 0.0078 µM

Question: What does the source list for `O=S1(=O)C(F)=Cc2cc(-c3cnc(NCc4c(F)ccc5c4[C@H]4C[C@H]4O5)n4cnnc34)ccc21` [2-fluoro-5-(5-((((1aR,6bR)-5-fluoro-1a,6b-dihydro-1H-cyclopropa[b]benzofuran-6-yl)methyl)amino)-[1,2,4]triazolo[4,3-c]pyrimidin-8-yl)benzo[b]thiophene 1,1-dioxide]?
Answer: IC50 [1]: 0.566 µM; IC50 (KARPAS-422 cells): 0.079 µM; IC50 [2]: 0.16 µM

Question: With `CC1=CS(=O)(=O)c2ccc(-c3cnc(NCc4c(F)ccc5c4[C@H]4C[C@H]4O5)n4cnnc34)cc21` [5-(5-((((1aR,6bR)-5-fluoro-1a,6b-dihydro-1H-cyclopropa[b]benzofuran-6-yl)methyl)amino)-[1,2,4]triazolo[4,3-c]pyrimidin-8-yl)-3-methylbenzo[b]thiophene 1,1-dioxide] as the compound, how does the IC50 [1] read?
Answer: 0.0049 µM

Question: And the IC50 (KARPAS-422 cells)?
Answer: 0.0243 µM

Question: What about the IC50 [2] of the same compound?
Answer: 0.0136 µM

Question: Which IC50 [1] does the source give for `Fc1ccc2c(c1CNc1ncc(-c3cccn4cnnc34)c3nncn13)[C@H]1C[C@H]1O2` [8-([1,2,4]triazolo[4,3-a]pyridin-8-yl)-N-(((1aR,6bR)-5-fluoro-1a,6b-dihydro-1H-cyclopropa[b]benzofuran-6-yl)methyl)-[1,2,4]triazolo[4,3-c]pyrimidin-5-amine] here?
Answer: 0.0095 µM

Question: What about the IC50 (KARPAS-422 cells) of the same compound?
Answer: 0.0048 µM

Question: And the IC50 [2]?
Answer: 0.0074 µM

Question: What does the source list for `Fc1ccc2c(c1CNc1ncc(-c3cc(Cl)cn4ccnc34)c3nncn13)CCO2` [8-(6-chloroimidazo[1,2-a]pyridin-8-yl)-N-((5-fluoro-2,3-dihydrobenzofuran-4-yl)methyl)-[1,2,4]triazolo[4,3-c]pyrimidin-5-amine]?
Answer: IC50 [1]: 0.0044 µM; IC50 (KARPAS-422 cells): 0.042 µM; IC50 [2]: 0.0085 µM

Question: How did the IC50 [1] turn out when `CCc1cnc2c(-c3cnc(NCc4c(F)ccc5c4CCO5)n4cnnc34)cccn12` [8-(3-ethylimidazo[1,2-a]pyridin-8-yl)-N-((5-fluoro-2,3-dihydrobenzofuran-4-yl)methyl)-[1,2,4]triazolo[4,3-c]pyrimidin-5-amine] was run?
Answer: 0.0025 µM

Question: And the IC50 (KARPAS-422 cells)?
Answer: 0.0009 µM

Question: And the IC50 [2]?
Answer: 0.0009 µM

Question: With `O=S1(=O)C=Cc2cc(-c3cnc(NCc4c(F)ccc5c4[C@H]4C[C@H]4O5)n4cnnc34)ccc21` [5-(5-((((1aR,6bR)-5-fluoro-1a,6b-dihydro-1H-cyclopropa[b]benzofuran-6-yl)methyl)amino)-[1,2,4]triazolo[4,3-c]pyrimidin-8-yl)benzo[b]thiophene 1,1-dioxide] as the compound, how does the IC50 [1] read?
Answer: 0.0038 µM

Question: And the IC50 (KARPAS-422 cells)?
Answer: 0.0007 µM

Question: And the IC50 [2]?
Answer: 0.0008 µM

Question: What does the source list for `Cc1cn2cccc(-c3cnc(NCc4c(F)ccc5c4CCO5)n4cnnc34)c2n1` [N-((5-fluoro-2,3-dihydrobenzofuran-4-yl)methyl)-8-(2-methylimidazo[1,2-a]pyridin-8-yl)-[1,2,4]triazolo[4,3-c]pyrimidin-5-amine]?
Answer: IC50 [1]: 0.0141 µM; IC50 (KARPAS-422 cells): 0.0024 µM; IC50 [2]: 0.003 µM

Question: Which IC50 [1] does the source give for `OCc1ccc(-c2cnc(NCc3c(F)ccc4c3CCO4)n3cnnc23)c2nccn12` [(8-(5-(((5-fluoro-2,3-dihydrobenzofuran-4-yl)methyl)amino)-[1,2,4]triazolo[4,3-c]pyrimidin-8-yl)imidazo[1,2-a]pyridin-5-yl)methanol] here?
Answer: 0.021 µM

Question: What about the IC50 (KARPAS-422 cells) of the same compound?
Answer: 0.0086 µM

Question: And the IC50 [2]?
Answer: 0.0052 µM

Question: How did the IC50 [1] turn out when `CC1=Cc2c(-c3cnc(NCc4c(F)ccc5c4CCO5)n4cnnc34)cccc2S1(=O)=O` [4-(5-(((5-fluoro-2,3-dihydrobenzofuran-4-yl)methyl)amino)-[1,2,4]triazolo[4,3-c]pyrimidin-8-yl)-2-methylbenzo[b]thiophene 1,1-dioxide] was run?
Answer: 0.0122 µM

Question: And the IC50 (KARPAS-422 cells)?
Answer: 0.0042 µM

Question: And the IC50 [2]?
Answer: 0.0036 µM

Question: For `Cc1ccc(-c2cnc(NCc3c(F)ccc4c3CCO4)n3cnnc23)c2ncc(CCO)n12` [2-(8-(5-(((5-fluoro-2,3-dihydrobenzofuran-4-yl)methyl)amino)-[1,2,4]triazolo[4,3-c]pyrimidin-8-yl)-5-methylimidazo[1,2-a]pyridin-3-yl)ethan-1-ol], which IC50 [1] is on record?
Answer: 0.0099 µM

Question: And the IC50 (KARPAS-422 cells)?
Answer: 0.0024 µM

Question: And the IC50 [2]?
Answer: 0.0016 µM

Question: Which results are given for `Fc1ccc2c(c1CNc1ncc(-c3cccn4cc(C(F)(F)F)nc34)c3nncn13)CCO2` [N-((5-fluoro-2,3-dihydrobenzofuran-4-yl)methyl)-8-(2-(trifluoromethyl)imidazo[1,2-a]pyridin-8-yl)-[1,2,4]triazolo[4,3-c]pyrimidin-5-amine]?
Answer: IC50 [1]: 0.0035 µM; IC50 (KARPAS-422 cells): 0.0017 µM; IC50 [2]: 0.0024 µM

Question: With `Cc1ccc(-c2cnc(NCc3c(F)ccc4c3CCO4)n3cnnc23)c2ncc(CC(=O)N(C)C)n12` [2-(8-(5-(((5-fluoro-2,3-dihydrobenzofuran-4-yl)methyl)amino)-[1,2,4]triazolo[4,3-c]pyrimidin-8-yl)-5-methylimidazo[1,2-a]pyridin-3-yl)-N,N-dimethylacetamide] as the compound, how does the IC50 [1] read?
Answer: 0.0114 µM

Question: What about the IC50 (KARPAS-422 cells) of the same compound?
Answer: 0.0061 µM

Question: And the IC50 [2]?
Answer: 0.0016 µM

Question: How did the IC50 [1] turn out when `Fc1ccc2c(c1CNc1ncc(-c3cccn4c(Cc5ccccc5)cnc34)c3nncn13)CCO2` [8-(3-phenylmethylimidazo[1,2-a]pyridin-8-yl)-N-((5-fluoro-2,3-dihydrobenzofuran-4-yl)methyl)-[1,2,4]triazolo[4,3-c]pyrimidin-5-amine] was run?
Answer: 0.0012 µM

Question: What about the IC50 (KARPAS-422 cells) of the same compound?
Answer: 0.0036 µM

Question: And the IC50 [2]?
Answer: 0.0045 µM
